Measured values published in PMC13308190, “Endothelial progenitor cell susceptibility to DNA damaging and DDR-modulating compounds determines endothelial differentiation accuracy” (Stem Cell Research & Therapy, 2026).

Experiments:
Test in all cases: Western blot protein expression (densitometry)
Type in all cases: cell-based, mouse
[1] = test system: EC d6 (endothelial-like cells); conditions: EC d6 24 h; for CHK1 protein / RAD51 protein / gH2AX protein / p-CHK2 protein / p-KAP1 protein / p-RPA32 protein / p-p53 protein: Fig 5D
Description: (§1) Total protein cell extracts were obtained upon sonication in RIPA buffer (EpiShearTM Probe sonicator, Active Motif [La Hulpe, Belgium]). Protein concentrations were determined using the DC Protein Assay (BioRad [Munich, Germany]). Extracts were supplemented with Roti®-Load buffer (Carl Roth GmbH [Karlsruhe, Germany]) followed by heating (95 °C for 5 min). 20 µg of protein was separated by SDS-PAGE and transferred onto nitrocellulose membrane. After blocking (5% non-fat milk in TBS/0.1% Tween 20 or 5% BSA in TBS/0.1% Tween 20) (1 h, RT) membrane was incubated with primary antibodies (1:500–5000; overnight, 4 °C). After washing with TBS/0.1% Tween 20, peroxidase-conjugated secondary antibody (1:2000) was added (2 h, RT) and bands were visualized using ChemiDoxTM Touch imaging system (BioRad, Munich, Germany).

mESC = mESC 24 h
Description: as §1

[2] = test system: EC d4 (endothelial progenitor cells); conditions: EC d4 48 h; for CHK1 protein / RAD51 protein / gH2AX protein / p-CHK2 protein / p-KAP1 protein / p-RPA32 protein / p-p53 protein: Fig 5D
Description: as §1

[3] = concentration 1 (Dox 1/B02 1/EST 1)
[4] = concentration 2 (Dox 2/B02 2/EST 2)
[5] = Fig 5D, concentration 1 (Dox 1/B02 1/EST 1)
[6] = Fig 5D, concentration 2 (Dox 2/B02 2/EST 2)

COc1cccc2c1C(=O)c1c(O)c3c(c(O)c1C2=O)C[C@@](O)(C(=O)CO)C[C@@H]3O[C@H]1C[C@H](N)[C@H](O)[C@H](C)O1 [Dox, doxorubicin]
H3ac protein ([1]; Fig 1D): 0.0 Fold of mESC | H4ac protein ([1]; Fig 1D): 0.0 Fold of mESC | aTubac (acetylated α-Tubulin) protein ([1]; Fig 1D): 0.6 Fold of mESC | CHK1 protein [1, 3]: 1.7 Fold of mESC | RAD51 protein [1, 3]: 1.7 Fold of mESC | gH2AX protein [1, 3]: 4.6 Fold of mESC | p-CHK2 protein [1, 3]: 0.8 Fold of mESC | p-KAP1 protein [1, 3]: 0.0 Fold of mESC | p-RPA32 protein [1, 3]: 0.2 Fold of mESC | p-p53 protein [1, 3]: 4.2 Fold of mESC | CHK1 protein [1, 4]: 1.0 Fold of mESC | RAD51 protein [1, 4]: 1.3 Fold of mESC | gH2AX protein [1, 4]: 31.8 Fold of mESC | p-CHK2 protein [1, 4]: 0.5 Fold of mESC | p-KAP1 protein [1, 4]: 0.0 Fold of mESC | p-RPA32 protein [1, 4]: 0.1 Fold of mESC | p-p53 protein [1, 4]: 3.1 Fold of mESC | AMPKa protein ([1]; Fig 6E): 0.6 Fold of mESC | GSK3b protein ([1]; Fig 6E): 4.3 Fold of mESC | p-p70SK protein ([1]; Fig 6E): 2.8 Fold of mESC | H3ac protein (mESC; Fig 1D): 0.3 Fold of mESC | H4ac protein (mESC; Fig 1D): 0.0 Fold of mESC | aTubac (acetylated α-Tubulin) protein (mESC; Fig 1D): 0.5 Fold of mESC | CHK1 protein (mESC; Fig 4H, Dox 2): 1.3 Fold of mESC | p-ATR protein (mESC; Fig 4H, Dox 2): 2.7 Fold of mESC | p-CHK1 protein (mESC; Fig 4H, Dox 2): 4.4 Fold of mESC | p-RPA32 protein (mESC; Fig 4H, Dox 2): 1.5 Fold of mESC | p-p53 protein (mESC; Fig 4H, Dox 2): 6.5 Fold of mESC | CHK1 protein (mESC; Fig 4H, Eto, Dox 1, B02, EST): 1.0 Fold of mESC | p-ATR protein (mESC; Fig 4H, Eto, Dox 1, B02, EST): 1.9 Fold of mESC | p-CHK1 protein (mESC; Fig 4H, Eto, Dox 1, B02, EST): 2.4 Fold of mESC | p-RPA32 protein (mESC; Fig 4H, Eto, Dox 1, B02, EST): 1.1 Fold of mESC | p-p53 protein (mESC; Fig 4H, Eto, Dox 1, B02, EST): 6.4 Fold of mESC | CHK1 protein (mESC; [5]): 1.7 Fold of mESC | RAD51 protein (mESC; [5]): 1.2 Fold of mESC | gH2AX protein (mESC; [5]): 69.7 Fold of mESC | p-CHK2 protein (mESC; [5]): 1.1 Fold of mESC | p-KAP1 protein (mESC; [5]): 31.2 Fold of mESC | p-RPA32 protein (mESC; [5]): 1.4 Fold of mESC | p-p53 protein (mESC; [5]): 4.2 Fold of mESC | CHK1 protein (mESC; [6]): 1.8 Fold of mESC | RAD51 protein (mESC; [6]): 0.9 Fold of mESC | gH2AX protein (mESC; [6]): 174.9 Fold of mESC | p-CHK2 protein (mESC; [6]): 1.5 Fold of mESC | p-KAP1 protein (mESC; [6]): 59.9 Fold of mESC | p-RPA32 protein (mESC; [6]): 1.8 Fold of mESC | p-p53 protein (mESC; [6]): 5.7 Fold of mESC | AMPKa protein (mESC; Fig 6E): 0.2 Fold of mESC | GSK3b protein (mESC; Fig 6E): 0.8 Fold of mESC | p-p70SK protein (mESC; Fig 6E): 1.1 Fold of mESC | H3ac protein ([2]; Fig 1D): 0.0 Fold of mESC | H4ac protein ([2]; Fig 1D): 0.0 Fold of mESC | aTubac (acetylated α-Tubulin) protein ([2]; Fig 1D): 0.3 Fold of mESC | CHK1 protein [2, 3]: 2.1 Fold of mESC | RAD51 protein [2, 3]: 0.1 Fold of mESC | gH2AX protein [2, 3]: 142.6 Fold of mESC | p-CHK2 protein [2, 3]: 0.7 Fold of mESC | p-KAP1 protein [2, 3]: 0.0 Fold of mESC | p-RPA32 protein [2, 3]: 0.5 Fold of mESC | p-p53 protein [2, 3]: 2.0 Fold of mESC | CHK1 protein [2, 4]: 0.2 Fold of mESC | RAD51 protein [2, 4]: < 0.1 Fold of mESC | gH2AX protein [2, 4]: 44.9 Fold of mESC | p-CHK2 protein [2, 4]: 0.2 Fold of mESC | p-KAP1 protein [2, 4]: 0.0 Fold of mESC | p-RPA32 protein [2, 4]: 0.1 Fold of mESC | p-p53 protein [2, 4]: 2.6 Fold of mESC | AMPKa protein ([2]; Fig 6E): 0.7 Fold of mESC | GSK3b protein ([2]; Fig 6E): 5.7 Fold of mESC | p-p70SK protein ([2]; Fig 6E): 0.5 Fold of mESC
